Laboratory results taken from US20150209379A1, “TREATMENT OF PROSTATE CANCER AND HEMATOLOGIC NEOPLASMS” (THOMAS JEFFERSON UNIVERSITY, priority 2012, published 2015).

Molecular target: T1, Stat5a (Homo sapiens, UniProt P42229)
T1 sequence (P42229 1-794): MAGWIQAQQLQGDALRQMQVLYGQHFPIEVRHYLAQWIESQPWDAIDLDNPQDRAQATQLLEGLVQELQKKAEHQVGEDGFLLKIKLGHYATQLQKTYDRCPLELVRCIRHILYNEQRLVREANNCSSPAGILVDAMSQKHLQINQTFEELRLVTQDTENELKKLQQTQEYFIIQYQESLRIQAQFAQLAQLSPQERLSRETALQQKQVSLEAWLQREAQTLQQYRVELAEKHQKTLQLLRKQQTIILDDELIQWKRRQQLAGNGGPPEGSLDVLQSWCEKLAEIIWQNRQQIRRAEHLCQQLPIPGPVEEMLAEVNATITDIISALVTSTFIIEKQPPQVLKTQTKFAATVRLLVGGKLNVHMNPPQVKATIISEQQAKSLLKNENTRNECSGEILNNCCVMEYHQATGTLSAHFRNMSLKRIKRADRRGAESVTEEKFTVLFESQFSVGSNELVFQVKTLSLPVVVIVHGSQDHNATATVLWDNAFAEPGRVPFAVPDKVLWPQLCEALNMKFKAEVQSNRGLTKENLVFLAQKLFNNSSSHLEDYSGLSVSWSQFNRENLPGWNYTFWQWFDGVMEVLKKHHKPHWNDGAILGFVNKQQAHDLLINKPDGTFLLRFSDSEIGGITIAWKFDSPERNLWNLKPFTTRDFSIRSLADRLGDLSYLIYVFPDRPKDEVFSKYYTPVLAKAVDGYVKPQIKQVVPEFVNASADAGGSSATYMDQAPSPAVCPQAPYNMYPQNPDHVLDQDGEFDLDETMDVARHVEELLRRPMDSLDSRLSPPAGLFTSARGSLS
Assay: Stat5a dimerization (FLAG-/MYC-tagged Stat5a co-immunoprecipitation) in PC-3 cells
Assay type: cell-based
Design: expressed in transfected cells; host or cells: PC-3 human prostate cancer cells
Conditions: 2 hours pretreatment, then hPrl 10 nM 30 minutes
Experimental: (§1) FLAG-tagged Stat5a and MYC-tagged Stat5a were generated by standard molecular biology cloning techniques. Plasmid pCMV3-FLAG-Stat5a, pCMV3-MYC-Stat5a and pPr1R were co-transfected using FuGENE6 (Roche) into PC-3 cells (2 μg of each plasmid per 1×10^7 cells). The cells were starved for 20 hours, pretreated with test compound for 2 hours, then stimulated with hPrl (10 nM) in RPMI 1640 without serum for 30 minutes. The cell lysates were immunoprecipitated with 25 μl anti-FLAG M2 […] affinity gel (2 μg/ml, Sigma), anti-MYC pAb (1 μg/ml, Upstate) or normal rabbit serum (NRS). The primary antibodies were used in the immunoblottings at the following concentrations: anti-FLAG pAb (1:1000; Stratagene), anti-MYC mAb (1:1000; Sigma), anti-Stat5a/b mAb (1:250) (Transduction Laboratories) detected by horseradish peroxidase-conjugated secondary antibodies. The results are shown in FIG. 3A for Compound 1 and FIG. 3B for Compound 2.
Lanes 1, 2, 4, 6 and 8 represent cells stimulated with human prolactin (Prl) for 30 minutes which induces dimerization of Stat5. Two hours prior to Prl-stimulation, the cells had been treated with DMSO (lanes 1-4), the control compound C5 (lanes 7 and 8) and either Compound 1 (lanes 5 and 6 in FIG. 3A) or Compound 2 (lanes 5 and 6 in FIG. 3B). […] It should be noted the drug effect in this study was not due to cell apoptosis induction, as the treatment time was only 2 hours. Treatment of at least 48 hours is required for the compound to induce prostate cancer cell apoptosis.
as §1, with “and pPrlR” for “and pPr1R”, “hours, pre-treated” for “hours, pretreated”, “with NBPP” for “with test compound”, “2 h,” for “2 hours,”, “antibodies.” for “antibodies. The results are shown in FIG. 3A for Compound 1 and FIG. 3B for Compound 2.”
Lanes 1, 2, 4, 6 and 8 represent cells stimulated with human prolactin (Prl) for 30 minutes which induces dimerization of Stat5. Two hours prior to Prl-stimulation, the cells had been treated with DMSO (lanes 1-4), the control compound C5 (lanes 5 and 6) or NBPP (lanes 7 and 8) to test whether the Stat5a/b-inhibitor compound, NBPP, would be able to inhibit dimerization of StatS. […] It should be noted the drug effect in this study was not due to cell apoptosis induction, as the treatment time was only 2 hours. Treatment of at least 48 hours is required for the compound to induce prostate cancer cell apoptosis.
FLAG-tagged Stat5a and MYC-tagged Stat5a were generated by standard molecular biology cloning techniques.as follows. […] The primary antibodies were used in the immunoblottings at the following concentrations: anti-FLAG pAb (1:1000; Stratagene), anti-MYC mAb (1:1000; Sigma), anti-Stat5a/b mAb (1:250) (Transduction Laboratories) detected by horseradish peroxidase-conjugated secondary antibodies. […]

Row | SMILES | effect on Stat5a dimerization
1 | OC[C@H]1O[C@@H](n2cnc3c(N4CCc5ccccc5C4)ncnc32)[C@H](O)[C@@H]1O [Compound 1, (2R,3R,4S,5R)-2-(6-(3,4-Dihydroisoquinolin-2(1H)-yl)-9H-purin-9-yl)-5-(hydroxymethyl)tetrahydrofuran-3,4-diol] | effectively inhibited Stat5a dimerization
2 | OC[C@H]1O[C@@H](n2cnc3c(NNc4ccccc4)ncnc32)[C@H](O)[C@@H]1O [Compound 2, (2R,3S,4R,5R)-2-(hydroxymethyl)-5-(6-(2-phenylhydrazinyl)-9H-purin-9-yl)tetrahydrofuran-3,4-diol] | effectively inhibited Stat5a dimerization
3 | OC[C@H]1O[C@@H](n2cnc3c(NCc4ccccc4)ncnc32)[C@H](O)[C@@H]1O [Compound N6BA, N^6-benzyladenosine] | effectively inhibited Stat5a dimerization
4 | OC[C@H]1O[C@@H](n2ccc3c(NCc4ccccc4)ncnc32)[C@H](O)[C@@H]1O [NBPP, N-(phenylmethyl)-7-β-D-ribofuranosyl-7H-pyrrolo[2,3-d]pyrimidin-4-amine] | effectively inhibited Stat5a dimerization
